This is an account of results in patent US9308176B2, “Less abusable pharmaceutical preparations” (Supernus Pharmaceuticals, Inc, priority 2004, dated 2016).

This data set in a line: aqueous solubility at different pH. The text has this:
Moreover, alkaline agents, such as sodium bicarbonate, calcium carbonate, meglumine, and calcium phosphate, can be used to convert salt forms of amine drugs to free base. Generally, free bases have much lower solubility than their salts.

One may read the solubility as the dissolved amount per volume that the medium holds. Lower therefore signals a poorly soluble substance. For the compound `COc1ccc2c3c1O[C@H]1C(=O)CC[C@@]4(O)[C@@H](C2)N(C)CC[C@]314.Cl` [oxycodone hydrochloride], the solubility was 182 mg/mL (pH 1.5, simulated gastric fluid) and 6.1 mg/mL (pH 7.4, aqueous buffer).
